According to patent publication US6262084A, “Compounds that inhibit the binding of integrins to their receptors” (Texas Biotechnology Corporation, priority 1999, dated 2001):

Target: T1, α4β1 integrin (Homo sapiens, UniProt P05556+P13612)
T1 construct: Ramos cells fluorescently labeled with calcein; endogenous in cells; host or cells: Ramos cells
Assay: Inhibition of adhesion of calcein-labeled Ramos cells to CS1 (fibronectin) peptide-conjugated ovalbumin
Assay type: cell-based
Details: for inhibition at 100 µM: Ramos, compound at a concentration of 100 μM, read-out: % A (percent inhibition of cell adhesion); for IC50: dose required to give 50% inhibition, Ramos cell adhesion to CS1-ovalbumin, 30 minutes at 37° C
Method: The ability of compounds of the present invention to inhibit binding is described in detail hereinafter in the Examples by a procedure in which a 26-amino acid peptide containing the CS1 sequence of fibroncctin with an N-terminal Cys was coupled to maleimide activated ovalbumin. Ovalbumin and CS1 conjugated ovalbumin were coated onto 96-well polystyrene plates at 5 μg/ml in TBS (50 mM Tris, pH 7.5; 150 mM NaCl) at 4° C. for 16 hours. The plates were washed three times with TBS and blocked with TBS containing 3% BSA at room temperature for 4 hours. Blocked plates were washed three times in binding buffer (TBS; 1 mM MgCl2; 1 mM CaCl2; 1 mM MnCl2) prior to assay. Ramos cells fluorescently labeled with calcein AMC-3099 were resuspended in binding buffer (10^7 cells/ml) and diluted 1:2 with same buffer with or without compound. The cells were added immediately to the wells (2.5×10^5 cells/well) and incubated for 30 minutes at 37° C. Following three washes with binding buffer, adherent cells were lysed and quantitated using a fluorometer.
IC50 is defined as the dose required to give 50% inhibition. The lower the IC50 value and the greater the percentage of inhibition, the more efficient the compound is at prevention of cell adhesion. A stands for inhibition in Table 1, and the percent inhibition indicates the inhibition of cell adhesion when compound is included in the assay at a concentration of 100 μM.

T1 sequence (P13612 34-1032): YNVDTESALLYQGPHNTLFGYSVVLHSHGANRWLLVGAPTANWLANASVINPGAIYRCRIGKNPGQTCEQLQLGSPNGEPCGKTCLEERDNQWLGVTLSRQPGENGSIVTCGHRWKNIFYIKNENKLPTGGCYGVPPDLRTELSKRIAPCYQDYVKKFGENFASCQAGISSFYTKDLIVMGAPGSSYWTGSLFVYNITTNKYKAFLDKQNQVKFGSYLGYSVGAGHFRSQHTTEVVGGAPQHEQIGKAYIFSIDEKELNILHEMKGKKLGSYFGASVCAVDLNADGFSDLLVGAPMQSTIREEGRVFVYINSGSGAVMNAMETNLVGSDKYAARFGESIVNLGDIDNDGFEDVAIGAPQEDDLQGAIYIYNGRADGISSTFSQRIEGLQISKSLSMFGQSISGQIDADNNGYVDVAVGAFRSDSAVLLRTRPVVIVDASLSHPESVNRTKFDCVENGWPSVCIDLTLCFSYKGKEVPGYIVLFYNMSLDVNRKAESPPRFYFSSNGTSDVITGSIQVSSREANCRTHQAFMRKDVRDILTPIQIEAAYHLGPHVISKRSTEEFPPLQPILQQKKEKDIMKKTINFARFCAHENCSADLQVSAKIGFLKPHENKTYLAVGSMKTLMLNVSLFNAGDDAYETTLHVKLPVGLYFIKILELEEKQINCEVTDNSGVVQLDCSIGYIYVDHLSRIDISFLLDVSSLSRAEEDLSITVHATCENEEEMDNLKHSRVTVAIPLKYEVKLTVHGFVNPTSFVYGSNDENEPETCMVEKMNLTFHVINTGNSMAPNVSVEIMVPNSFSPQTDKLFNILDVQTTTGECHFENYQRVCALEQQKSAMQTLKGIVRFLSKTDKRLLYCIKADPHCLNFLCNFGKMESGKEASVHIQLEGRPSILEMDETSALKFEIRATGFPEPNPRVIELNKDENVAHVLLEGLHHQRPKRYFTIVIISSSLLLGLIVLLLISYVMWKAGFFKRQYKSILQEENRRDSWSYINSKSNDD
T1 sequence (P05556 21-798): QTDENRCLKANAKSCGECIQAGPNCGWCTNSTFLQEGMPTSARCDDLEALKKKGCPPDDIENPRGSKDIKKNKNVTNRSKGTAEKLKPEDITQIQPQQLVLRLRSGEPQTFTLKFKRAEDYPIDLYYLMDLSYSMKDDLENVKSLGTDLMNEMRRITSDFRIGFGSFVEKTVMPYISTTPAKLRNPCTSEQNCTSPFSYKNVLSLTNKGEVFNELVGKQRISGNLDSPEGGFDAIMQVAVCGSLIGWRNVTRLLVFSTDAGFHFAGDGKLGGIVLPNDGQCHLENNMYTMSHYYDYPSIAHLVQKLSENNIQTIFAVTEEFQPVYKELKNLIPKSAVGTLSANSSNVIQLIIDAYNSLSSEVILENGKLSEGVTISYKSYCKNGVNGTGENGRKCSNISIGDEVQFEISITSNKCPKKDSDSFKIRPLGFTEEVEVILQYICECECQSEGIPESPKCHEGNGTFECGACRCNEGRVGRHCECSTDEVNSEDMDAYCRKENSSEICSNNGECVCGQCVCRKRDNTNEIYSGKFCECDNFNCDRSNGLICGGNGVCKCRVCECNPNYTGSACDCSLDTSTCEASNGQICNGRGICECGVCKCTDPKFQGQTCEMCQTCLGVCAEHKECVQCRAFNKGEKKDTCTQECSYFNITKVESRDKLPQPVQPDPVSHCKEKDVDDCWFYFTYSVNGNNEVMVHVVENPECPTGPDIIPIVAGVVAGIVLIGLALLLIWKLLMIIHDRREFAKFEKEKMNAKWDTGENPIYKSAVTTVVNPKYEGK

inhibition at 100 µM (Table 1) [%] | IC50 (Table 1) [nM] | IC50 (Table 2) [nM] | SMILES
100 | 200 |  | O=C(O)C[C@H](NC(=O)N[C@@H](CSCC1CC1)CSc1ccccc1)c1ccc2c(c1)OCO2 [(3S)-3-(1,3-benzodioxol-5-yl)-3-{[({(1S)-2-[(cyclopropylmethyl)thio]-1-[(phenylthio)methyl]ethyl}amino)carbonyl]amino}propanoic acid]
 |  | 60 | CCCC[C@H](NC(=O)N[C@@H](CC(=O)O)c1ccc2c(c1)OCO2)C(=O)NCc1ccc(NS(=O)(=O)c2cccs2)cc1 [Compound 42, 3(3S)-3-(1,3-benzodioxol-5-yl)-3-([((1S)-1-[(4-(2-thienylsulfonamido)benzyl)amino]carbonylpentyl)amino]carbonylamino)propanoic acid]
 |  | 120 | CCCC[C@H](NC(=O)N[C@@H](CC(=O)O)c1ccc2c(c1)OCO2)C(=O)NCc1ccc(NCc2cccc(C)n2)cc1 [Compound 43]
95 | 1000 |  | COC(=O)NCCCC[C@H](NC(=O)N[C@@H](CC(=O)O)c1ccc2c(c1)OCO2)C(=O)NCc1ccc(N(Cc2ccccc2C)Cc2ccccc2C)cc1 [(9S,13S)-13-(1,3-benzodioxol-5-yl)-9-[({4-bis(2-methylbenzyl)amino]benzyl}amino)carbonyl]-3,11-dioxo-2-oxa-4,10,12-triazapentadecan-15-oic acid]
100 | 400 |  | COC(=O)NCCCC[C@@H](CSc1ccccc1)NC(=O)N[C@@H](CC(=O)O)c1ccc2c(c1)OCO2 [(9S,13S)-13-(1,3-benzodioxol-5-yl)-3,11-dioxo-9-[(phenylsulfanyl)methyl]-2-oxa-4,10,12-triazapentadecan-15-oic acid]
100 | 2000 |  | O=C(O)C[C@H](NC(=O)N[C@@H](CCCCNC(=O)OCc1ccccc1)C(=O)NCCc1ccc(O)cc1)c1ccc2c(c1)OCO2 [(9S,13S)-13-(1,3-benzodioxol-5-yl)-9-{[(4-hydroxyphenethyl)amino]carbonyl}-3,11-dioxo-1-phenyl-2-oxa-4,10,12-triazapentadecan-15-oic acid]
100 | 3000 |  | O=C(O)C[C@H](NC(=O)O[C@@H](CSCc1ccccc1)CSc1ccccc1)c1ccc2c(c1)OCO2 [(3S)-3-(1,3-benzodioxol-5-yl)-3-{[({(1S)-2-(benzylthio)-1-[(phenylthio)methyl]ethyl}oxy)carbonyl]amino}propanoic acid]
95 | 35000 |  | CC(C)C(NC(=O)N[C@@H](CC(=O)O)c1ccc2c(c1)OCO2)C(Sc1ccccc1)Sc1ccccc1 (stereo partly drawn) [(3S)-3-[({[1-{[bis-(phenylsulfanyl)]methyl}-2-methylpropyl]amino}carbonyl)amino]-3-[(3,4-methylenedioxy)phenyl]propanoic acid]
100 | 4000 |  | O=C(O)C[C@H](NC(=O)O[C@@H](COCCc1ccccc1)CSc1ccccc1)c1ccc2c(c1)OCO2 [(3S)-3-(1,3-benzodioxol-5-yl)-3-{[({(1S)-2-(phenethyloxy)-1-[(phenylthio)methyl]ethyl}oxy)carbonyl]amino}propanoic acid]
100 | 2500 |  | CC(C)[C@@H](CSc1ccccc1)NC(=O)N[C@@H](CC(=O)O)c1ccc2c(c1)OCO2 [(3S)-3-(1,3-benzodioxol-5-yl)-3-(((((1S)-2-methyl-1-((phenylsulfanyl)methyl)propyl)amino)carbonyl)amino)propanoic acid]
100 | 3000 |  | CSCC[C@@H](CSc1ccc(N)cc1)NC(=O)N[C@@H](CC(=O)O)c1ccc2c(c1)OCO2 [(3S)-3-[({[(1S)-1-{[(4-aminophenyl)sulfanyl]methyl}-3-(methylsulfanyl)propyl]amino}carbonyl)amino]-3-(1,3-benzodioxol-5-yl)propanoic acid]
100 | 500 |  | CCCS(=O)(=O)Nc1cccc(SC[C@H](CCSC)NC(=O)N[C@@H](CC(=O)O)c2ccc3c(c2)OCO3)c1 [(3S)-3-(1,3-benzodioxol-5-yl)-3-{[({(1S)-3-(methylthio)-1-[({3-[(propylsulfonyl)amino]phenyl}thio)methyl]propyl}amino)carbonyl]amino}propanoic acid]
